Measured values published in patent publication US8614327B2 (Vertex Pharmaceuticals Incorporated, priority 2004, dated 2013).

Biological target: T1, ΔF508-CFTR (Homo sapiens, UniProt P13569, DEL508-508)
T1 construct: expressed in transfected cells
Assay: Membrane potential optical (FRET/VIPR) assay, identification of potentiator compounds
Assay type: cell-based
Settings: Table 3, assay not given; for % Activity: relative efficacy
Method in brief: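 NIH3T3 mouse fibroblasts stably expressing ΔF508-CFTR, temperature-corrected 24 h at 27° C., read on VIPR by FRET between CC2-DMPE and DiSBAC2(3). Potentiators identified in a double-addition format, first adding chloride-free (gluconate) medium with or without compound.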

T1 sequence (P13569 with tags, fused parts or gaps DEL508-508): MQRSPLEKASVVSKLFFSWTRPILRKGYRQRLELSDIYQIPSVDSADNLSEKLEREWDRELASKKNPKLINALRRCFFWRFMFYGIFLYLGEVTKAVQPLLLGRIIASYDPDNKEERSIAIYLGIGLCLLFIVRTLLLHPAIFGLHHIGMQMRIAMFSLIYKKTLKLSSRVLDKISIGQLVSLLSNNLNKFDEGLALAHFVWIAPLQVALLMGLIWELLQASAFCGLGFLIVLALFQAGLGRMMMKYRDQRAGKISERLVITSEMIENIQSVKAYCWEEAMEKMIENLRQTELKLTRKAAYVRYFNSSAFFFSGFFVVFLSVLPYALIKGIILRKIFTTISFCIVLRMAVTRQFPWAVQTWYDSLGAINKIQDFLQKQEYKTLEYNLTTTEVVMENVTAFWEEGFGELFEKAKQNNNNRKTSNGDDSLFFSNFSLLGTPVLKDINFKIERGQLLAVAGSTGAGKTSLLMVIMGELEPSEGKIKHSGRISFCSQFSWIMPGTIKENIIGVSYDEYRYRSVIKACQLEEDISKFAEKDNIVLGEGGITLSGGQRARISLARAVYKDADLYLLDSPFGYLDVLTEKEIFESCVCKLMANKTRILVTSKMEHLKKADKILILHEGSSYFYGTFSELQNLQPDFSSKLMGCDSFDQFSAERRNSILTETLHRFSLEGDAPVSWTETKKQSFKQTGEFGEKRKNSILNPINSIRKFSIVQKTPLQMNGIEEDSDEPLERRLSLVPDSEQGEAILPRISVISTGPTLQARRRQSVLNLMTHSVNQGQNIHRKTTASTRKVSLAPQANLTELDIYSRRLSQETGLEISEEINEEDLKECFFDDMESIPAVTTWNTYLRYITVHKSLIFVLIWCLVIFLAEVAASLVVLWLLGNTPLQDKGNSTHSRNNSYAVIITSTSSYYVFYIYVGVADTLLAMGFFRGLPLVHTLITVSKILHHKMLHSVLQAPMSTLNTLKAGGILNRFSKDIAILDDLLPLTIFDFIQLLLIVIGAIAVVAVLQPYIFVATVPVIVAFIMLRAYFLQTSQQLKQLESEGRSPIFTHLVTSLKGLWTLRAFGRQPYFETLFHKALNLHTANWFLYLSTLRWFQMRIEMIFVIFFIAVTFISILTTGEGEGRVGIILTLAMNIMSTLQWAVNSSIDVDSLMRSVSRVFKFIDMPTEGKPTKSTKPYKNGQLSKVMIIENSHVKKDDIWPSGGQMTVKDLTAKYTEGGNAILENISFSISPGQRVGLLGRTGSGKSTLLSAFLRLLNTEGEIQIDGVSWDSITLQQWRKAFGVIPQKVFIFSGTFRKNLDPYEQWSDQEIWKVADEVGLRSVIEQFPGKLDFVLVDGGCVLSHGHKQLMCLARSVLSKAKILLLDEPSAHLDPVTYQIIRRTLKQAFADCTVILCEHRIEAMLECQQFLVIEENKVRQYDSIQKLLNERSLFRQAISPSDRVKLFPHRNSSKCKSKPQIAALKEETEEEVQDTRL

Row | Compound | EC50 | % Activity
1 | O=C(Nc1ccccc1-n1cccc1)c1c[nH]c2ccccc2c1=O [Compound 293, 4-oxo-N-[2-(1H-pyrrol-1-yl)phenyl]-1H-quinoline-3-carboxamide] | 10 to 25 µM | +++ (>100%)
2 | O=C(Nc1cc(O)c(C(F)(F)F)cc1F)c1c[nH]c2ccccc2c1=O [Compound 501, N-[2-fluoro-5-hydroxy-4-(trifluoromethyl)phenyl]-4-oxo-1H-quinoline-3-carboxamide] | < 10 µM | ++ (between 25% to 100%)
3 | O=C(Nc1cccc2ncccc12)c1c[nH]c2ccccc2c1=O [Compound 191, 4-oxo-N-(5-quinolyl)-1H-quinoline-3-carboxamide] | 25 to 60 µM | + (<25%)
4 | O=C(Nc1cc2[nH]ccc2cc1F)c1c[nH]c2ccc(F)cc2c1=O [Compound 254, 6-fluoro-N-(5-fluoro-1H-indol-6-yl)-4-oxo-1H-quinoline-3-carboxamide] | < 10 µM | ++ (between 25% to 100%)
5 | O=C(Nc1ccccc1-c1cccc(F)c1)c1c[nH]c2ccccc2c1=O [Compound 277, N-[2-(3-fluorophenyl)phenyl]-4-oxo-1H-quinoline-3-carboxamide] |  | +++ (>100%)
6 | CC(C)c1cccc(C(C)C)c1NC(=O)c1c[nH]c2ccccc2c1=O [Compound 466, N-(2,6-diisopropylphenyl)-4-oxo-1H-quinoline-3-carboxamide] | < 10 µM | ++ (between 25% to 100%)
7 | CCCc1ccc(NC(=O)c2c[nH]c3ccccc3c2=O)cc1N [Compound 160, N-(3-amino-4-propyl-phenyl)-4-oxo-1H-quinoline-3-carboxamide] | < 10 µM | ++ (between 25% to 100%)
8 | CCOC(=O)[C@H]1CCCN(c2ccc(NC(=O)c3c[nH]c4ccccc4c3=O)c(C(F)(F)F)c2)C1 [Compound 660, (S)-ethyl 1-(4-(4-oxo-1,4-dihydroquinoline-3-carboxamido)-3-(trifluoromethyl)phenyl)piperidine-3-carboxylate] | < 10 µM | ++ (between 25% to 100%)
9 | CCC(C)c1ccccc1NC(=O)c1c[nH]c2ccccc2c1=O (stereo not shown) [Compound 142, 4-oxo-N-(2-sec-butylphenyl)-1H-quinoline-3-carboxamide] | < 10 µM | ++ (between 25% to 100%)
10 | CC(=O)Nc1cccc(-c2ccccc2NC(=O)c2c[nH]c3ccccc3c2=O)c1 [Compound 25, N-[2-(3-acetylaminophenyl)phenyl]-4-oxo-1H-quinoline-3-carboxamide] |  | ++ (between 25% to 100%)
11 | O=C(Nc1ccc2ccccc2c1)c1c[nH]c2ccccc2c1=O [Compound 481, N-(2-naphthyl)-4-oxo-1H-quinoline-3-carboxamide] | < 10 µM | ++ (between 25% to 100%)
12 | CNc1ccc(C(C)C)c(NC(=O)c2c[nH]c3ccccc3c2=O)c1 [Compound 399, N-(2-isopropyl-5-methylamino-phenyl)-4-oxo-1H-quinoline-3-carboxamide] | < 10 µM | ++ (between 25% to 100%)
13 | CC1(C)CNc2cc(NC(=O)c3c[nH]c4ccccc4c3=O)ccc21 [Compound 386, N-(3,3-dimethylindolin-6-yl)-4-oxo-1H-quinoline-3-carboxamide] | < 10 µM | ++ (between 25% to 100%)
14 | COC(=O)[C@@H]1CCCCN1c1ccc(NC(=O)c2c[nH]c3ccccc3c2=O)c(C(F)(F)F)c1 [Compound 715, (S)-methyl 1-(4-(4-oxo-1,4-dihydroquinoline-3-carboxamido)-3-(trifluoromethyl)phenyl)piperidine-2-carboxylate] | < 10 µM | ++ (between 25% to 100%)
15 | CC(C)c1cc(C(F)(F)F)c(NC(=O)c2c[nH]c3ccccc3c2=O)cc1O [Compound 497, N-[5-hydroxy-4-isopropyl-2-(trifluoromethyl)phenyl]-4-oxo-1H-quinoline-3-carboxamide] | < 10 µM | +++ (>100%)
16 | O=C(Nc1ccc(-c2ccccc2)cn1)c1c[nH]c2ccccc2c1=O [Compound 402, 4-oxo-N-(5-phenyl-2-pyridyl)-1H-quinoline-3-carboxamide] | < 10 µM | + (<25%)
17 | O=C(Nc1ccc(Cl)cn1)c1c[nH]c2ccccc2c1=O [Compound 170, N-(5-chloro-2-pyridyl)-4-oxo-1H-quinoline-3-carboxamide] | 25 to 60 µM | + (<25%)
18 | Cc1cccc2[nH]cc(C(=O)Nc3cc4[nH]ccc4cc3C(F)(F)F)c(=O)c12 [Compound 661, 5-methyl-4-oxo-N-[5-(trifluoromethyl)-1H-indol-6-yl]-1H-quinoline-3-carboxamide] | < 10 µM | ++ (between 25% to 100%)
19 | COc1ccc(NC(=O)c2c[nH]c3ccccc3c2=O)cn1 [Compound 162, N-(6-methoxy-3-pyridyl)-4-oxo-1H-quinoline-3-carboxamide] | 25 to 60 µM | + (<25%)

Row | Compound | EC50 | % Activity
20 | CCOC(=O)NCC(C)(C)c1ccc(NC(=O)c2c[nH]c3ccccc3c2=O)cc1 [Compound 119, [2-methyl-2-[4-[(4-oxo-1H-quinolin-3-yl)carbonylamino]phenyl]-propyl]aminoformic acid ethyl ester] | < 10 µM | ++ (between 25% to 100%)
21 | O=C(Nc1ccc2cc(C(F)(F)F)[nH]c2c1)c1c[nH]c2ccc(F)cc2c1=O [Compound 495, 6-fluoro-4-oxo-N-[2-(trifluoromethyl)-1H-indol-6-yl]-1H-quinoline-3-carboxamide] | < 10 µM | ++ (between 25% to 100%)
22 | Nc1cc(NC(=O)c2c[nH]c3ccccc3c2=O)ccc1OC(F)(F)F [Compound 58, N-[3-amino-4-(trifluoromethoxy)phenyl]-4-oxo-1H-quinoline-3-carboxamide] | < 10 µM | ++ (between 25% to 100%)
23 | CCOc1ccccc1-c1ccc(CN)cc1NC(=O)c1c[nH]c2ccccc2c1=O [Compound 163, 4-Oxo-1,4-dihydro-quinoline-3-carboxylic acid (4-aminomethyl-2′-ethoxy-biphenyl-2-yl)-amide] | 10 to 25 µM | ++ (between 25% to 100%)
24 | COC(=O)c1cc(NC(=O)c2c[nH]c3ccccc3c2=O)ccc1C(C)(C)C [Compound 444, 5-[(4-oxo-1H-quinolin-3-yl)carbonylamino]-2-tert-butyl-benzoic acid methyl ester] | < 10 µM | ++ (between 25% to 100%)
25 | O=C(Nc1ccc(OCc2ccccc2)cc1)c1c[nH]c2ccccc2c1=O [Compound 189, N-(4-benzyloxyphenyl)-4-oxo-1H-quinoline-3-carboxamide] | < 10 µM | ++ (between 25% to 100%)
26 | O=C(Nc1ccc(N2CCOCC2)cc1)c1c[nH]c2ccccc2c1=O [Compound 457, N-(4-morpholinophenyl)-4-oxo-1H-quinoline-3-carboxamide] | 25 to 60 µM | + (<25%)
27 | O=C(Nc1ccc(OC(F)(F)F)cc1Cl)c1c[nH]c2ccccc2c1=O [Compound 628, N-[2-chloro-4-(trifluoromethoxy)phenyl]-4-oxo-1H-quinoline-3-carboxamide] | < 10 µM | ++ (between 25% to 100%)
28 | COc1ccc(-c2ccccc2NC(=O)c2c[nH]c3ccccc3c2=O)c(OC)c1 [Compound 312, N-[2-(2,4-dimethoxyphenyl)phenyl]-4-oxo-1H-quinoline-3-carboxamide] | < 10 µM | ++ (between 25% to 100%)
29 | O=C(Nc1ccc2cn[nH]c2c1)c1c[nH]c2ccccc2c1=O [Compound 284, N-(1H-indazol-6-yl)-4-oxo-1H-quinoline-3-carboxamide] | 10 to 25 µM | ++ (between 25% to 100%)
30 | Cc1cccnc1NC(=O)c1c[nH]c2ccccc2c1=O [Compound 192, N-(3-methyl-2-pyridyl)-4-oxo-1H-quinoline-3-carboxamide] | 25 to 60 µM | + (<25%)
31 | N#CCc1ccc(NC(=O)c2c[nH]c3ccccc3c2=O)cc1 [Compound 110, N-[4-(cyanomethyl)phenyl]-4-oxo-1H-quinoline-3-carboxamide] | 25 to 60 µM | + (<25%)
32 | COc1ccc(Oc2ccc(C(F)(F)F)cc2NC(=O)c2c[nH]c3ccccc3c2=O)cc1 [Compound 205, N-[2-(4-methoxyphenoxy)-5-(trifluoromethyl)phenyl]-4-oxo-1H-quinoline-3-carboxamide] | < 10 µM | ++ (between 25% to 100%)
33 | O=C(Nc1cccc2nsnc12)c1c[nH]c2ccccc2c1=O [Compound 54, 4-oxo-N-(8-thia-7,9-diazabicyclo[4.3.0]nona-2,4,6,9-tetraen-5-yl)-1H-quinoline-3-carboxamide] | 25 to 60 µM | + (<25%)
34 | O=C(Nc1ccccc1-c1ccoc1)c1c[nH]c2ccccc2c1=O [Compound 123, N-[2-(3-furyl)phenyl]-4-oxo-1H-quinoline-3-carboxamide] |  | ++ (between 25% to 100%)
35 | CCOc1ccccc1-c1ccc(CNC(=O)OC(C)(C)C)cc1NC(=O)c1c[nH]c2ccccc2c1=O [Compound 304, {2′-Ethoxy-2-[(4-oxo-1,4-dihydroquinoline-3-carbonyl)-amino]-biphenyl-4-ylmethyl}-carbamic acid tert-butyl ester] | < 10 µM | ++ (between 25% to 100%)
36 | Cc1ccc(NC(=O)c2c[nH]c3ccccc3c2=O)nc1 [Compound 195, N-(5-methyl-2-pyridyl)-4-oxo-1H-quinoline-3-carboxamide] | 25 to 60 µM | + (<25%)
37 | Cc1cccc2c(=O)c(C(=O)Nc3cc4[nH]ccc4cc3C(C)(C)C)c[nH]c12 [Compound 644, 8-methyl-4-oxo-N-(5-tert-butyl-1H-indol-6-yl)-1H-quinoline-3-carboxamide] | < 10 µM | + (<25%)
38 | O=C(Nc1cccc(Cl)c1)c1c[nH]c2ccccc2c1=O [Compound 370, N-(3-chlorophenyl)-4-oxo-1H-quinoline-3-carboxamide] | < 10 µM | ++ (between 25% to 100%)
